Several values for one entry are separate records, joined by “and”; a condition that tells them apart may be missing. Equal entries are not always repeated. Where two headings read alike, the source gives them in different places.
Columns and labels:
[1] = tested on: HEK293 and HepG2 cell lines
[2] = tested on: HepG2 cells; experiment: CellTox Green Cytotoxicity Assay (flor) in HepG2, HepG2[flor]; format: cell-based, human; conditions: for EC50: HepG2, flor, n=136, read-out: EC50;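 on hepg2 flor emax 0: percent activity versus DMSO-only wells with baseline rescaled to 0%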;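 on hepg2 flor emax 40: percent activity versus DMSO-only wells with baseline rescaled to 0%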
[3] = tested on: HEK293 cells; conditions: for IC50: HEK293, glo, mean and SD, n=136; on hek293 flor emax 0: unit not given here
[4] = tested on: HepG2 cells; conditions: for IC50: HepG2, glo, n=136
[5] = tested on: HEK293 cells; conditions: for EC50: HEK293, flor, mean and SD, n=136; on hek293 flor emax 0: unit not given here
[6] = POD potency, max over real-time cytotoxicity assays
[7] = POD potency, median over real-time cytotoxicity assays
[8] = HEK293[glo], HEK293[flor], HepG2[glo], HepG2[flor]

CCCCCCCCCCCCCC[N+](C)(C)C.[Cl-]
Cyto(realtime)_max [1, 6]: 5.94 log10(M)*-1 | Cyto(realtime)_median [1, 7]: 4.88 log10(M)*-1

CCCCCCCCCCCCCC[n+]1ccn(C)c1.[Cl-]
Cyto(realtime)_max [1, 6]: 6.67 log10(M)*-1 | Cyto(realtime)_median [1, 7]: 4.69 log10(M)*-1

C.I. Solvent Black 5
Cyto(realtime)_max [1, 6]: 5.68 log10(M)*-1 | Cyto(realtime)_median [1, 7]: 4.42 log10(M)*-1

CC(C)(C)CC(C)(C)c1ccc(O)cc1 [4-(1,1,3,3-tetramethylbutyl)phenol, reference compound]
cytotoxicity kinetics activity profile in the four real-time cytotoxicity assays [1, 8]: quickly reach the maximum cytotoxic effect in at least three assays

Cc1cc(N)c2cc(NC(=O)Nc3ccc4nc(C)cc(N)c4c3)ccc2n1.Cl.Cl [Aminoquinuride dihydrochloride]
hepg2_flor_auc ([2]; HepG2 flor): 0 | hepg2_flor_time ([2]; HepG2 flor): 48 | hepg2_flor_bin ([2]; HepG2 flor, kinetics bin): inactive | hepg2_flor_emax_0 ([2]; HepG2 flor, time point 0): 0 | hepg2_flor_pod_0 ([2]; HepG2 flor, time point 0): -4.417 | hepg2_flor_wauc_0 ([2]; HepG2 flor, time point 0): 0 | hepg2_flor_emax_8 ([2]; HepG2 flor, time point 8): 0 | hepg2_flor_pod_8 ([2]; HepG2 flor, time point 8): -4.417 | hepg2_flor_wauc_8 ([2]; HepG2 flor, time point 8): 0 | hepg2_flor_emax_16 ([2]; HepG2 flor, time point 16): 0 | hepg2_flor_pod_16 ([2]; HepG2 flor, time point 16): -4.417 | hepg2_flor_wauc_16 ([2]; HepG2 flor, time point 16): 0 | hepg2_flor_emax_24 ([2]; HepG2 flor, time point 24): 0 | hepg2_flor_pod_24 ([2]; HepG2 flor, time point 24): -4.417 | hepg2_flor_wauc_24 ([2]; HepG2 flor, time point 24): 0 | hepg2_flor_emax_32 ([2]; HepG2 flor, time point 32): 0 | hepg2_flor_pod_32 ([2]; HepG2 flor, time point 32): -4.417 | hepg2_flor_wauc_32 ([2]; HepG2 flor, time point 32): 0 | hepg2_flor_emax_40 ([2]; HepG2 flor, time point 40): 0 | hepg2_flor_pod_40 ([2]; HepG2 flor, time point 40): -4.417 | hepg2_flor_wauc_40 ([2]; HepG2 flor, time point 40): 0 | hek293_glo_auc ([3]; HEK293 glo): 0 | hek293_glo_time ([3]; HEK293 glo): 48 | hek293_glo_bin ([3]; HEK293 glo, kinetics bin): inactive | hek293_glo_emax_0 ([3]; HEK293 glo, time point 0): 0 | hek293_glo_pod_0 ([3]; HEK293 glo, time point 0): -4.417 | hek293_glo_wauc_0 ([3]; HEK293 glo, time point 0): 0 | hek293_glo_emax_8 ([3]; HEK293 glo, time point 8): 0 | hek293_glo_pod_8 ([3]; HEK293 glo, time point 8): -4.417 | hek293_glo_wauc_8 ([3]; HEK293 glo, time point 8): 0 | hek293_glo_emax_16 ([3]; HEK293 glo, time point 16): 0 | hek293_glo_pod_16 ([3]; HEK293 glo, time point 16): -4.417 | hek293_glo_wauc_16 ([3]; HEK293 glo, time point 16): 0 | hek293_glo_emax_24 ([3]; HEK293 glo, time point 24): 0 | hek293_glo_pod_24 ([3]; HEK293 glo, time point 24): -4.417 | hek293_glo_wauc_24 ([3]; HEK293 glo, time point 24): 0 | hek293_glo_emax_32 ([3]; HEK293 glo, time point 32): 0 | hek293_glo_pod_32 ([3]; HEK293 glo, time point 32): -4.417 | hek293_glo_wauc_32 ([3]; HEK293 glo, time point 32): 0 | hek293_glo_emax_40 ([3]; HEK293 glo, time point 40): 0 | hek293_glo_pod_40 ([3]; HEK293 glo, time point 40): -4.417 | hek293_glo_wauc_40 ([3]; HEK293 glo, time point 40): 0 | hepg2_glo_auc ([4]; HepG2 glo): 0 | hepg2_glo_time ([4]; HepG2 glo): 48 | hepg2_glo_bin ([4]; HepG2 glo, kinetics bin): inactive | hepg2_glo_emax_0 ([4]; HepG2 glo, time point 0): 0 | hepg2_glo_pod_0 ([4]; HepG2 glo, time point 0): -4.417 | hepg2_glo_wauc_0 ([4]; HepG2 glo, time point 0): 0 | hepg2_glo_emax_8 ([4]; HepG2 glo, time point 8): 0 | hepg2_glo_pod_8 ([4]; HepG2 glo, time point 8): -4.417 | hepg2_glo_wauc_8 ([4]; HepG2 glo, time point 8): 0 | hepg2_glo_emax_16 ([4]; HepG2 glo, time point 16): 0 | hepg2_glo_pod_16 ([4]; HepG2 glo, time point 16): -4.417 | hepg2_glo_wauc_16 ([4]; HepG2 glo, time point 16): 0 | hepg2_glo_emax_24 ([4]; HepG2 glo, time point 24): 0 | hepg2_glo_pod_24 ([4]; HepG2 glo, time point 24): -4.417 | hepg2_glo_wauc_24 ([4]; HepG2 glo, time point 24): 0 | hepg2_glo_emax_32 ([4]; HepG2 glo, time point 32): 0 | hepg2_glo_pod_32 ([4]; HepG2 glo, time point 32): -4.417 | hepg2_glo_wauc_32 ([4]; HepG2 glo, time point 32): 0 | hepg2_glo_emax_40 ([4]; HepG2 glo, time point 40): 0 | hepg2_glo_pod_40 ([4]; HepG2 glo, time point 40): -4.417 | hepg2_glo_wauc_40 ([4]; HepG2 glo, time point 40): 0 | hek293_flor_auc ([5]; HEK293 flor): 0 | hek293_flor_time ([5]; HEK293 flor): 48 | hek293_flor_bin ([5]; HEK293 flor, kinetics bin): inactive | hek293_flor_emax_0 ([5]; HEK293 flor, time point 0): 0 | hek293_flor_pod_0 ([5]; HEK293 flor, time point 0): -4.417 | hek293_flor_wauc_0 ([5]; HEK293 flor, time point 0): 0 | hek293_flor_emax_8 ([5]; HEK293 flor, time point 8): 0 | hek293_flor_pod_8 ([5]; HEK293 flor, time point 8): -4.417 | hek293_flor_wauc_8 ([5]; HEK293 flor, time point 8): 0 | hek293_flor_emax_16 ([5]; HEK293 flor, time point 16): 0 | hek293_flor_pod_16 ([5]; HEK293 flor, time point 16): -4.417 | hek293_flor_wauc_16 ([5]; HEK293 flor, time point 16): 0 | hek293_flor_emax_24 ([5]; HEK293 flor, time point 24): 0 | hek293_flor_pod_24 ([5]; HEK293 flor, time point 24): -4.417 | hek293_flor_wauc_24 ([5]; HEK293 flor, time point 24): 0 | hek293_flor_emax_32 ([5]; HEK293 flor, time point 32): 0 | hek293_flor_pod_32 ([5]; HEK293 flor, time point 32): -4.417 | hek293_flor_wauc_32 ([5]; HEK293 flor, time point 32): 0 | hek293_flor_emax_40 ([5]; HEK293 flor, time point 40): 0 | hek293_flor_pod_40 ([5]; HEK293 flor, time point 40): -4.417 | hek293_flor_wauc_40 ([5]; HEK293 flor, time point 40): 0 | information ([1]; any activity in any time point/assay): 0

CCCCCCCCCCCCCC[P+](CCCCCC)(CCCCCC)CCCCCC.N#C[N-]C#N
Cyto(realtime)_max [1, 6]: 5.83 log10(M)*-1 | Cyto(realtime)_median [1, 7]: 4.81 log10(M)*-1

1-Ethyl-3-methylimidazolium diethylphosphate
Cyto(realtime)_max [1]: 6.32 log10(M)*-1 | Cyto(realtime)_median [1]: 4.65 log10(M)*-1

CCCCCCCCCCCCn1cc[n+](C)c1.O=S(=O)([O-])C(F)(F)F
Cyto(realtime)_max [1, 6]: 6.68 log10(M)*-1 | Cyto(realtime)_median [1, 7]: 4.57 log10(M)*-1

ClC(Cl)=C(c1ccc(Cl)cc1)c1ccc(Cl)cc1 [p,p'-DDE, reference compound]
cytotoxicity kinetics activity profile in the four real-time cytotoxicity assays [1, 8]: quickly reach the maximum cytotoxic effect in at least three assays

CCCCCCCC[N+](CCCCCCCC)(CCCCCCCC)CCCCCCCC [tetra-N-octylammonium bromide, reference compound]
EC50 ([2]; 8 hrs): 7.59 ± 1.48 µM | EC50 ([2]; 16 hrs): 6.18 ± 1.27 µM | EC50 ([2]; 24 hrs): 5.87 ± 1.1 µM | EC50 ([2]; 32 hrs): 6.43 ± 1 µM | EC50 ([2]; 40 hrs): 6.4 ± 0.96 µM | IC50 ([3]; 8 hrs): 5.91 ± 1.26 µM | IC50 ([3]; 16 hrs): 2.53 ± 0.74 µM | IC50 ([3]; 24 hrs): 1.34 ± 0.52 µM | IC50 ([3]; 32 hrs): 0.87 ± 0.44 µM | IC50 ([3]; 40 hrs): 0.79 ± 0.32 µM | IC50 ([4]; 8 hrs): 7.9 ± 1.62 µM | IC50 ([4]; 16 hrs): 7.53 ± 1.44 µM | IC50 ([4]; 24 hrs): 7.79 ± 1.54 µM | IC50 ([4]; 32 hrs): 8.05 ± 1.68 µM | IC50 ([4]; 40 hrs): 8.18 ± 1.91 µM | EC50 ([5]; 8 hrs): 9.88 ± 2.1 µM | EC50 ([5]; 16 hrs): 8.01 ± 1.52 µM | EC50 ([5]; 24 hrs): 6.06 ± 1.11 µM | EC50 ([5]; 32 hrs): 6.8 µM and 6.73 µM | EC50 ([5]; 40 hrs): 7.69 ± 1.76 µM

C=CC1(C)OC(=O)N(c2cc(Cl)cc(Cl)c2)C1=O (stereo not shown) [vinclozolin, reference compound]
cytotoxicity kinetics activity profile in the four real-time cytotoxicity assays [1]: no activity in all four real-time cytotoxicity assays

CC=O [Acetaldehyde]
Cyto(realtime)_max [1, 6]: 6.67 log10(M)*-1 | Cyto(realtime)_median [1, 7]: 4.54 log10(M)*-1

O=[N+]([O-])C1(Br)COCOC1 [5-Bromo-5-nitro-1,3-dioxane]
Cyto(realtime)_max [1, 6]: 4.72 log10(M)*-1 | Cyto(realtime)_median [1, 7]: 4.41 log10(M)*-1

Cl.Cl.Nc1ccc(-c2ccc(N)c(Cl)c2)cc1Cl [3,3'-Dichlorobenzidine dihydrochloride]
Cyto(realtime)_max [1, 6]: 5.37 log10(M)*-1 | Cyto(realtime)_median [1, 7]: 4.59 log10(M)*-1

CCCCCCCCCCCCCCCC[N+](C)(C)C.[Cl-]
Cyto(realtime)_max [1, 6]: 5.58 log10(M)*-1 | Cyto(realtime)_median [1, 7]: 4.79 log10(M)*-1

CCCCCCCCCCCCn1cc[n+](C)c1.[Cl-] [1-Dodecyl-3-methylimidazolium chloride]
Cyto(realtime)_max [1, 6]: 7.06 log10(M)*-1 | Cyto(realtime)_median [1, 7]: 4.44 log10(M)*-1

CCCC[n+]1ccc(C)cc1.[Cl-] [1-Butyl-4-methylpyridinium chloride]
Cyto(realtime)_max [1, 6]: 5.01 log10(M)*-1 | Cyto(realtime)_median [1, 7]: 4.39 log10(M)*-1

CCCCC(CC)COC(=O)c1ccc(O)cc1 (stereo not shown) [2-Ethylhexylparaben]
Cyto(realtime)_max [1, 6]: 4.68 log10(M)*-1 | Cyto(realtime)_median [1, 7]: 4.25 log10(M)*-1

CCCCCCCCCCCCn1cc[n+](C)c1.F[B-](F)(F)F
Cyto(realtime)_max [1, 6]: 6.57 log10(M)*-1 | Cyto(realtime)_median [1, 7]: 4.55 log10(M)*-1

CCCCCCCCCCCCCCCCn1cc[n+](C)c1.F[B-](F)(F)F
Cyto(realtime)_max [1, 6]: 6.28 log10(M)*-1 | Cyto(realtime)_median [1, 7]: 4.62 log10(M)*-1

CO[C@@]12[C@H](COC(N)=O)C3=C(C(=O)C(C)=C(N)C3=O)N1C[C@@H]1N[C@@H]12 [mitomycin C, reference compound]
activity in the assay (cytotoxic effect) [4]: active

OCC(c1ccc(Cl)cc1)c1ccc(Cl)cc1 [2,2-Bis(4-chlorophenyl)ethanol]
Cyto(realtime)_max [1, 6]: 4.70 log10(M)*-1 | Cyto(realtime)_median [1, 7]: 4.57 log10(M)*-1

N=C1NC(=N)c2cc3ccccc3cc21 [1,3-Diiminobenz(f)isoindoline]
Cyto(realtime)_max [1, 6]: 4.75 log10(M)*-1 | Cyto(realtime)_median [1, 7]: 4.40 log10(M)*-1

Triethyltin bromide
Cyto(realtime)_max [1]: 6.72 log10(M)*-1 | Cyto(realtime)_median [1]: 5.42 log10(M)*-1

C=C(c1ccc(C(=O)O)cc1)c1cc2c(cc1C)C(C)(C)CCC2(C)C [Bexarotene]
Cyto(realtime)_max [1]: 4.68 log10(M)*-1 | Cyto(realtime)_median [1]: 4.23 log10(M)*-1

CC/C(=C(\c1ccc(O)cc1)c1ccc(OCCN(C)C)cc1)c1ccccc1 [(Z)-4-Hydroxytamoxifen]
Cyto(realtime)_max [1, 6]: 4.89 log10(M)*-1 | Cyto(realtime)_median [1, 7]: 4.45 log10(M)*-1

CCCCCCCCCCCCCC[P+](CCCC)(CCCC)CCCC.CCCCCCCCCCCCc1ccc(S(=O)(=O)[O-])cc1
Cyto(realtime)_max [1, 6]: 6.97 log10(M)*-1 | Cyto(realtime)_median [1, 7]: 5.03 log10(M)*-1

Bis(tributyltin)oxide
Cyto(realtime)_max [1]: 7.21 log10(M)*-1 | Cyto(realtime)_median [1]: 6.40 log10(M)*-1

C[C@]12CC[C@@H]3c4ccc(O)cc4C[C@@H](CCCCCCCCC[S+]([O-])CCCC(F)(F)C(F)(F)F)[C@H]3[C@@H]1CC[C@@H]2O (stereo partly shown) [fulvestrant, reference compound]
cytotoxicity kinetics activity profile in the four real-time cytotoxicity assays ([1]; human): solely active, HEK293[glo]

— PMC5439695 (PLoS ONE, 2017)
